Assays:
subcutaneous glioma PDX = assay: Subcutaneous PDX model of glioma (GBM1); assay type: in vivo, nude mice
Experimental: Fig. 2 The BBB permeability and tumor suppressor ability of GA-amide compared with TMZ. GA-amide (a) or TMZ (b) concentration in the tumor area and normal brain tissue following a single injection of GA-amide (10 mg/kg, i.v.) or TMZ (10 mg/kg, i.v.). The data are presented as the means ± SEMs (n = 3). c Western blot analysis of the expression of TrkA in mouse tumor tissues (T) and normal brain tissues (N), n = 4. d Western blot analysis of glycosylated TrkA expression in human normal brain tissues (N) and glioma tissues of different grades. e Time curve of GA-amide and TMZ treatment in a cell viability assay (MTS) in T2-4, GSC2 and T12-1 cells. f–h A PDX mouse model was established, and the mice were treated with vehicle (control, n = 9), 2 mg/kg GA-amide (n = 9), 2 mg/kg GAC (n = 9) or […] TMZ (n = 8) by i.p. injection daily for 10 days. A summary photograph is presented in (f), statistical results in (g) and the body weights of mice in (h); the mean ± SEMs are shown. n.s: P ≥ 0.05, *P < 0.05, **P < 0.01 and ***P < 0.001 compared with the control group by one-way ANOVA at each time point
Male nude mice aged 5–6 weeks were selected for establishment of the in vivo glioma mouse models. For the PDX models, the tumor sample will be soaked in HBSS solution on ice and transferred from the hospital to the laboratory. Patient-related information was shown in Supplementary Table 4). For the subcutaneous PDX models, the isometric fresh GBM tumor (GBM1) specimens were implanted s.c. into the flank of a nude mouse. Then, the mice were treated with GA-amide (2 mg/kg i.p.), gambogic acid (2 mg/kg i.p.), TMZ (65 mg/kg i.p., Selleck) or vehicle after the tumors grew to 100 mm^3. The mouse body weights were measured, and tumor volumes were calculated using the formula L × W^2/2. After treatment, the xenografts were harvested and photographed.

[1] = biological target: T1, His-WD2-7 (WD2 to WD7 repeats of WDR1) (Homo sapiens, UniProt O75083); assay: SPR analysis (Biacore 8 K); assay type: binding; conditions: immobilized His-WD2-7, 25 °C, 5% DMSO
T1 construct: His; made in house; host or cells: Arctic-Express (E. coli)
T1 sequence (O75083 48-306 limits assumed): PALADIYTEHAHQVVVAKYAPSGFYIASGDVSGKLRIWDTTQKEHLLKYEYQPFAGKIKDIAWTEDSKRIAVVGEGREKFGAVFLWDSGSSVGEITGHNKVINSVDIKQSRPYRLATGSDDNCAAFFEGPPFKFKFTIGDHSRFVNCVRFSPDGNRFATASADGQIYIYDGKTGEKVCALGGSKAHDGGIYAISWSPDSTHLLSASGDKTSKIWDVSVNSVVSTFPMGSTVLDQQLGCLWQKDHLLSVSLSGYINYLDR
Experimental: The binding affinities of GA-amide for its target proteins GST-WDR1, GST, and His-WD2-7 were assayed by using the SPR-based Biacore 8 K instrument (GE Healthcare). The CM5 sensor chip was used to immobilize 15,000 RU of the target protein to the sensor surface by the standard amine coupling reaction at 25 °C in PBS running buffer. Gradient concentrations of GA-amide containing 5% DMSO were injected into the channels to evaluate the binding affinity. The dissociation constants (KD values) of the GA-amide–protein complexes were calculated with Biacore 8 K Evaluation Software.
The pGEX4T-1 plasmid was used to express the GST-WDR1 and GST proteins, while the pET-28c plasmid was used to express the His-WD2-7 protein. Arctic-ExpressTM was used for the production of the GST-WDR1, GST and His-WD2-7 fusion proteins. The cultures were grown at 37 °C, and when the OD600 reached 0.5–0.8, the protein was expressed after 0.5 mM IPTG was added. After 4 h, the cells were collected and washed with cold PBS twice.
For His-WD2-7 protein purification, cells were first lysed by sonication. WD2-7 was present the precipitate and solubilized as described above. Then, the protein was loaded onto a Balanced Ni-IDA-Sepharose Cl-6B column (Novagen) and washed with Ni-IDA Washing-Buffer (20 mM Tris-HCl, 20 mM imidazole, 0.15 M NaCl, pH 8.0). […]

[2] = tested on: glioma-related cells (PDCs, GCs and GSCs); assay: IC50 assay (MTS cell viability), span over cell lines; assay type: cell-based; conditions: span over PDC, GC and GSC lines
Experimental: Four PDC lines (T12-1, T12-2, T2-4, T19-1) obtained from the Beijing Tiantan Hospital[53] and three GSC lines (GSC2, U87MG-SLC, U251-SLC) were established and verified in our previous work.[17] Two GCSC lines were kindly provided by Dr. Ran.[54] These cell lines were cultured in neurobasal medium (Gibco) containing 2% B27 (Gibco), 1% 100 × Antibiotic-Antimycotic (Gibco), 2 mmol/L L-glutamine (catalog SH30034.01, HyClone), 20 ng/mL bFGF (catalog 100-18B-50UG, PeproTech), 20 ng/mL EGF (catalog AF-100-15-100UG, PeproTech), and 10 μg/mL heparin (Sigma‒Aldrich). H1-NSCs obtained from D.Q. Pei’s laboratory (Guangzhou Institutes of Biomedicine and Health, Chinese Academy of Sciences, Guangzhou, China), were cultured in the same medium as the PDCs, with the addition of 1% N-2 supplement (Gibco, Thermo Fisher Scientific). The human astrocyte (HA) cell line was purchased from ScienCell and cultured in commercial astrocyte medium (catalog 1801, ScienCell) supplemented with 1% AGS (ScienCell), 2% FBS (ScienCell) and 1% P/S solution (ScienCell). […]
Cells were seeded in 96-well plates and treated with 0, 0.03, 0.1, 0.3, 1, 3, 10, or 30 μM GA-amide (Santa Cruz) in triplicate. After 48 h of incubation, cell viability was quantified using the MTS assay, and the GA-amide cytotoxicity curve was estimated using GraphPad Prism.

CC(C)=CCC[C@]1(C)C=Cc2c(O)c3c(c(CC=C(C)C)c2O1)O[C@]12C(=C[C@@H]4CC1C(C)(C)O[C@@]2(C/C=C(/C)C(N)=O)C4=O)C3=O [GA-amide, gambogic amide] was tested, and the “body weight of mice” value (subcutaneous glioma PDX; 2 mg/kg i.p. daily for 10 days) was “did not cause the loss of body weight”, the “tumor volume versus control” value (subcutaneous glioma PDX; 2 mg/kg i.p. daily for 10 days) was “significantly decreased compared with those in the control group” and the “Ki67, CD133 and cleaved caspase3 in tumor sections (immunohistology)” value (subcutaneous glioma PDX; PDX tumors at endpoint, 10 days treatment) was “decreased expression of Ki67 and the GSC marker prominin 1 (CD133) as well as an increased level of cleaved caspase3”. For the same compound, the “histology of liver, kidney and small intestine (H&E)” value (subcutaneous glioma PDX; after GA-amide treatment) was “no discernible abnormalities”, the Kd [1] was 46.7 µM and the IC50 [2] was 0.133 to 0.399 µM.

Reference: publication PMC10630452, “The tumor-enriched small molecule gambogic amide suppresses glioma by targeting WDR1-dependent cytoskeleton remodeling” (Signal Transduction and Targeted Therapy, 2023)
